# Tests used:
# Assay in all cases: relative viability (nuclei count vs DMSO), 5 days (fraction); higher = more cells survive
# Wnt-C59 + Palbociclib = compound: CC1=NC=CC(=C1)C2=CC=C(C=C2)CC(=O)NC3=CC=C(C=C3)C4=CN=CC=C4 [Wnt-C59] + CC(=O)c1c(C)c2cnc(Nc3ccc(N4CCNCC4)cn3)nc2n(C2CCCC2)c1=O [Palbociclib] (partner 0.5 µM)
# Summary of the method: (§1)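 Lung cancer cell lines in 1536-well plates got either a single drug or a fixed anchor-drug dose together with five library-drug doses (not always all listed) in √10 steps, by pin tool, on the day after seeding. Nuclei were counted after 5 days, and relative viability is the treated-to-vehicle ratio of nuclei counts. Values are medians of duplicate plates.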
# Wnt-C59 + Dasatinib = compound: CC1=NC=CC(=C1)C2=CC=C(C=C2)CC(=O)NC3=CC=C(C=C3)C4=CN=CC=C4 [Wnt-C59] + Cc1nc(Nc2ncc(C(=O)Nc3c(C)cccc3Cl)s2)cc(N2CCN(CCO)CC2)n1 [Dasatinib] (partner 0.075 µM)
# Summary of the method: as §1
# Lapatinib + OSI-027 = compound: CS(=O)(=O)CCNCc1ccc(-c2ccc3ncnc(Nc4ccc(OCc5cccc(F)c5)c(Cl)c4)c3c2)o1 [Lapatinib] + COc1cccc2cc(-c3nc([C@H]4CC[C@H](C(=O)O)CC4)n4ncnc(N)c34)[nH]c12 [OSI-027] (partner 0.5 µM)
# Summary of the method: as §1
# Lapatinib + Pemetrexed = compound: CS(=O)(=O)CCNCc1ccc(-c2ccc3ncnc(Nc4ccc(OCc5cccc(F)c5)c(Cl)c4)c3c2)o1 [Lapatinib] + Nc1nc2[nH]cc(CCc3ccc(C(=O)N[C@@H](CCC(=O)O)C(=O)O)cc3)c2c(=O)[nH]1 [Pemetrexed] (partner 0.2 µM)
# Summary of the method: as §1
Cell Line,relative viability (Wnt-C59 + Palbociclib; first compound 0.001 µM),relative viability (Wnt-C59 + Palbociclib; first compound 0.01 µM),relative viability (Wnt-C59 + Palbociclib; first compound 0.03162 µM),relative viability (Wnt-C59 + Palbociclib; first compound 0.1 µM),relative viability (Wnt-C59 + Dasatinib; first compound 0.001 µM),relative viability (Wnt-C59 + Dasatinib; first compound 0.01 µM),relative viability (Wnt-C59 + Dasatinib; first compound 0.03162 µM),relative viability (Wnt-C59 + Dasatinib; first compound 0.1 µM),relative viability (Lapatinib + OSI-027; first compound 0.02 µM),relative viability (Lapatinib + OSI-027; first compound 0.06325 µM),relative viability (Lapatinib + OSI-027; first compound 0.2 µM),relative viability (Lapatinib + OSI-027; first compound 0.6325 µM),relative viability (Lapatinib + OSI-027; first compound 2 µM),relative viability (Lapatinib + Pemetrexed; first compound 0.06325 µM),relative viability (Lapatinib + Pemetrexed; first compound 0.2 µM),relative viability (Lapatinib + Pemetrexed; first compound 0.6325 µM),relative viability (Lapatinib + Pemetrexed; first compound 2 µM),relative viability (Lapatinib + Pemetrexed; first compound 0.02 µM)
NCI-H1395,0.598,0.652,0.566,0.573,0.406,0.398,0.423,0.444,0.535,0.597,0.612,0.636,0.627,0.938,0.87,0.887,0.793,–
PC-14,0.688,0.496,0.552,0.506,0.309,0.257,0.242,0.241,0.464,0.743,0.824,0.794,0.152,0.117,0.167,0.133,0.129,0.151
NCI-H522,0.912,1.04,1.15,0.892,0.92,0.752,0.875,0.882,–,0.565,0.658,0.681,0.589,0.794,0.875,0.994,0.781,–
HOP-62,0.468,0.403,0.49,0.493,0.696,0.66,0.716,0.697,0.486,0.756,0.89,0.866,0.914,0.318,0.299,0.365,0.389,–
NCI-H1623,–,–,–,–,0.507,0.488,0.572,0.625,0.377,0.367,0.407,0.387,0.246,–,–,–,–,–

# Source: the supplement of paper PMC10307832
